Reference: ChEMBL document CHEMBL5113463, “Discovery and preclinical evaluations of JBD0131, a novel nitrodihydro-imidazooxazole anti-tuberculosis agent” (Bioorg Med Chem Lett, 2022)
≈ marks a conversion by molar mass, not a printed value. Calls of active or inactive are those of the source. The calls are words filed in the database; no cut-off is given here.

Experiments:
[1] = system: Mycobacterium tuberculosis; experiment: Antimycobacterial activity against clinical isolate drug susceptible Mycobacterium tuberculosis H37Rv assessed as bacterial growth inhibition; type: functional
[2] = system: Mycobacterium tuberculosis; experiment: In vivo antimycobacterial activity against Mycobacterium tuberculosis Erdman infected mouse acute tuberculosis infection model assessed as reduction lung bacterial load by measuring CFU at 15 mg/kg for 3 weeks at 5 days/week; type: functional, organism-based
[3] = system: Mycobacterium tuberculosis; experiment: Antimycobacterial activity against Mycobacterium tuberculosis H37Rv assessed as bacterial growth inhibition incubated for 7 days by MABA assay; type: functional; conditions: 168 h, time 7 day
[4] = Cytotoxicity against African green monkey vero cells assessed as reduction in cell viability; type: toxicity, cell-based; conditions: chlorocebus sabaeus
[5] = Volume of distribution in CD-1 mouse at 0.6 mg/kg, iv; type: ADME, organism-based; conditions: in vivo
[6] = Half life in CD-1 mouse at 0.6 mg/kg, iv; type: ADME, organism-based; conditions: in vivo
[7] = Cmax in CD-1 mouse at 5 mg/kg, po; type: ADME, organism-based; set-up: dose 5 mg/kg, route po; conditions: in vivo
[8] = AUC (0-last) in CD-1 mouse at 5 mg/kg, po; type: ADME, organism-based; set-up: dose 5 mg/kg, route po; conditions: in vivo
[9] = Oral bioavailability in CD-1 mouse at 5 mg/kg; type: ADME, organism-based; conditions: in vivo
[10] = Clearance in CD-1 mouse at 0.6 mg/kg, iv; type: ADME, organism-based; conditions: in vivo
[11] = Metabolic stability in human liver microsomes assessed as half life; type: ADME, Microsome
[12] = Metabolic stability in rat liver microsomes assessed as half life; type: ADME, Microsome
[13] = Metabolic stability in mouse liver microsomes assessed as half life; type: ADME, Microsome
[14] = system: Mycobacterium tuberculosis; experiment: Antimycobacterial activity against Mycobacterium tuberculosis H37Rv assessed as bacterial growth inhibition incubated for 10 days under hypoxic condition followed by 28 hrs incubation under normoxic condition by Low-Oxygen-Recovery Assay; type: functional; conditions: 264 h, time 11 day
[15] = Apparent permeability across apical to basolateral side in dog MDCK cells; type: ADME, cell-based, Canis lupus familiaris
[16] = Plasma protein binding in mouse assessed as bound fraction; type: ADME, cell-free; conditions: read-out: PPB (converted)
[17] = Plasma protein binding in rat assessed as bound fraction; type: ADME, cell-free; conditions: read-out: PPB (converted)
[18] = Plasma protein binding in dog assessed as bound fraction; type: ADME, cell-free, Canis lupus familiaris; conditions: read-out: PPB (converted)
[19] = Plasma protein binding in human assessed as bound fraction; type: ADME, cell-free; conditions: read-out: PPB (converted)
[20] = molecular target: T1, Cytochrome P450 1A2 (Homo sapiens, UniProt P05177); experiment: Inhibition of CYP1A2 (unknown origin); type: ADME
T1 sequence (P05177 whole entry): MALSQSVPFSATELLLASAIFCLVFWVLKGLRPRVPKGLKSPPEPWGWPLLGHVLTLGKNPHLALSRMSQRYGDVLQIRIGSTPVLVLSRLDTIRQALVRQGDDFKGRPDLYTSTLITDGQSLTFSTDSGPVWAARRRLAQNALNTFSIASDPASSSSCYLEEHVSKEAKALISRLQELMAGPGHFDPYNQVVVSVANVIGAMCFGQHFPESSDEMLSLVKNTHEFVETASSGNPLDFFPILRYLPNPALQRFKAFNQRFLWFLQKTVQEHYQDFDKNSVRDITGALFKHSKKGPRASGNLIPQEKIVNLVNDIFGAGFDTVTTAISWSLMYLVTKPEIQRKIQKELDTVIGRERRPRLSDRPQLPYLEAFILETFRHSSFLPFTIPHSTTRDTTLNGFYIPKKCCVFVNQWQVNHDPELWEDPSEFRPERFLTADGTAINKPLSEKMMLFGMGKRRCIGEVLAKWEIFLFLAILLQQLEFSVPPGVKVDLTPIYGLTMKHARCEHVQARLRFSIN

[21] = molecular target: T2, Cytochrome P450 2B6 (Homo sapiens, UniProt P20813); experiment: Inhibition of CYP2B6 (unknown origin); type: ADME
T2 sequence (P20813 whole entry): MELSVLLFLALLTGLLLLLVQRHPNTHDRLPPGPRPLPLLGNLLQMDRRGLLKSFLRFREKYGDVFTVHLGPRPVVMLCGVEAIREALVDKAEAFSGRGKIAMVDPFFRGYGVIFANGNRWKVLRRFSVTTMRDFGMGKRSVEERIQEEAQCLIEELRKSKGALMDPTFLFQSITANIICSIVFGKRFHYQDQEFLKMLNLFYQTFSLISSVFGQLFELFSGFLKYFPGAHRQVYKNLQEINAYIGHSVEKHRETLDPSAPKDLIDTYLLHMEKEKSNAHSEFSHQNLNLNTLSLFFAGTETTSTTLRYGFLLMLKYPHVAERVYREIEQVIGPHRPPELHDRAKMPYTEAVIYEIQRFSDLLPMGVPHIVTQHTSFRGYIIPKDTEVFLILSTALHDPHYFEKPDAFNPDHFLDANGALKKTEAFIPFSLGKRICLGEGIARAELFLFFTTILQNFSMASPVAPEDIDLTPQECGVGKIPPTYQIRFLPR

[22] = molecular target: T3, Cytochrome P450 2C8 (Homo sapiens, UniProt P10632); experiment: Inhibition of CYP2C8 (unknown origin); type: ADME
T3 sequence (P10632 whole entry): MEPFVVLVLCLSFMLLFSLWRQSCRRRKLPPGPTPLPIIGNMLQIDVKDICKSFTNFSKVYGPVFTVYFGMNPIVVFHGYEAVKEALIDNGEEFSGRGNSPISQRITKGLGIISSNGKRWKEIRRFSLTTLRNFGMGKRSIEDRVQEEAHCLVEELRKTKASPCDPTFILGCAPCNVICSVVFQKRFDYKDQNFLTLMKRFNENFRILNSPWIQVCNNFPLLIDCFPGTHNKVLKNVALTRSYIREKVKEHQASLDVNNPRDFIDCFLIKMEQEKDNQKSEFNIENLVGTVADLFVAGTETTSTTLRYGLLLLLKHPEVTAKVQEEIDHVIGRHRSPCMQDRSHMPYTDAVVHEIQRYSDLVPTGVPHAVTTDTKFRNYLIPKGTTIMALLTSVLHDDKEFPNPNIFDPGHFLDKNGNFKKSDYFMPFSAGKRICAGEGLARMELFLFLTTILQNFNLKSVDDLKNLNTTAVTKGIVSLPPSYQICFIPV

[23] = molecular target: Cytochrome P450 2C9 (Homo sapiens, UniProt P11712); experiment: Inhibition of CYP2C9 (unknown origin); type: ADME
Chain of Cytochrome P450 2C9 (P11712 whole entry): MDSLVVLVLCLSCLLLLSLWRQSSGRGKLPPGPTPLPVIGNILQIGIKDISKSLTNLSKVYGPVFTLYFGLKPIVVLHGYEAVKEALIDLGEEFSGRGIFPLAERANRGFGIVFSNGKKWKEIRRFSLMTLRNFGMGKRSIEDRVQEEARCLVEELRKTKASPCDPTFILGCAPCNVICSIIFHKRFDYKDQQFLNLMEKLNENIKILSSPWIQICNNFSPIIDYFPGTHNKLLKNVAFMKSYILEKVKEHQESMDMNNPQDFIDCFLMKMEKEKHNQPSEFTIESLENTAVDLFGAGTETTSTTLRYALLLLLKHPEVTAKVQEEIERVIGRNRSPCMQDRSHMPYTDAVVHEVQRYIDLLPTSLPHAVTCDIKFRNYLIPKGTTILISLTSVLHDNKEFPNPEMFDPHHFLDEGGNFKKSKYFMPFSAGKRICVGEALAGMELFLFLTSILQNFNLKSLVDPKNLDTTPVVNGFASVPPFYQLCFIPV

[24] = molecular target: Cytochrome P450 2C19 (Homo sapiens, UniProt P33261); experiment: Inhibition of CYP2C19 (unknown origin); type: ADME
Chain of Cytochrome P450 2C19 (P33261 whole entry): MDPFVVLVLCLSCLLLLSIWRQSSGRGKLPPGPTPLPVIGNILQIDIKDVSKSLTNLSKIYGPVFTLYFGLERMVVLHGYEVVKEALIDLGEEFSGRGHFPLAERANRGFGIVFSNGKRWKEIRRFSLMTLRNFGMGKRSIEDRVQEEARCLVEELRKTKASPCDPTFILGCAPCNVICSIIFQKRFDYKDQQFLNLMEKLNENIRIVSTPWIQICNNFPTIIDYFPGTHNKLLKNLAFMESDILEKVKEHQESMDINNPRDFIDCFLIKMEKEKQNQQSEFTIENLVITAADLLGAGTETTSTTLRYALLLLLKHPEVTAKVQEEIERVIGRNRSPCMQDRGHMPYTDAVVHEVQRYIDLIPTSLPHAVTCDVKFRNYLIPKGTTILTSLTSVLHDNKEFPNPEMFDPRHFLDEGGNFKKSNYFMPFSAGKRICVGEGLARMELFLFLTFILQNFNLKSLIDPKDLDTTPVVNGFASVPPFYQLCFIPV

[25] = molecular target: Cytochrome P450 2D6 (Homo sapiens, UniProt P10635); experiment: Inhibition of CYP2D6 (unknown origin); type: ADME
Chain of Cytochrome P450 2D6 (P10635 whole entry): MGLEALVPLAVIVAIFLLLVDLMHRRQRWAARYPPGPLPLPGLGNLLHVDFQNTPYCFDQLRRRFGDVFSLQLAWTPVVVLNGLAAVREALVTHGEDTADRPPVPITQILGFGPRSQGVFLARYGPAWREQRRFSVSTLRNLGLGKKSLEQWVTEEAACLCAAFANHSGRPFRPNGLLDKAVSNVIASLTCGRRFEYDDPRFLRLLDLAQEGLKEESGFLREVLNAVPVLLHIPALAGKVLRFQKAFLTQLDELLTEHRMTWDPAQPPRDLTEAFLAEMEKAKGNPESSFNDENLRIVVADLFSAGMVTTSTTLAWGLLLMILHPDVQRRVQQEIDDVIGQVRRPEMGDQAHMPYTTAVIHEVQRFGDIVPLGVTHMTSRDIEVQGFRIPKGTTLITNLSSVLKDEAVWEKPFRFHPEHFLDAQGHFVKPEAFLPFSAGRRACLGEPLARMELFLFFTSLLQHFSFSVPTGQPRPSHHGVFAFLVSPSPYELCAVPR

[26] = molecular target: Cytochrome P450 3A4 (Homo sapiens, UniProt P08684); experiment: Inhibition of CYP3A4 (unknown origin); type: ADME
Chain of Cytochrome P450 3A4 (P08684 whole entry): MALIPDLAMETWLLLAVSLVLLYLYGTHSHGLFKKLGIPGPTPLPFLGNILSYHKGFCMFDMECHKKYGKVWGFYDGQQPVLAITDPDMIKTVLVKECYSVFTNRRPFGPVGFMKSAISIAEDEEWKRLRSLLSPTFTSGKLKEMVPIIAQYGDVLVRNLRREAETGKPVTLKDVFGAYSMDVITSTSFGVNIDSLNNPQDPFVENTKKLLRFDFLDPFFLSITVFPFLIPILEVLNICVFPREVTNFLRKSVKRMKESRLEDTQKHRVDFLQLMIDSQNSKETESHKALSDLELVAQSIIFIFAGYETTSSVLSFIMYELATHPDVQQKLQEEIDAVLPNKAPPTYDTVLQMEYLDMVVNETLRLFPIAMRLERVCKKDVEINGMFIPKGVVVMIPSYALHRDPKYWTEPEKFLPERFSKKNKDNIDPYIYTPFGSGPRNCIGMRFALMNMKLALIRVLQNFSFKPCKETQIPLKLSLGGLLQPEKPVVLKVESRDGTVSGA

[27] = molecular target: Voltage-gated inwardly rectifying potassium channel KCNH2 (Homo sapiens, UniProt Q12809); experiment: Inhibition of human ERG; type: toxicity
Chain of Voltage-gated inwardly rectifying potassium channel KCNH2 (Q12809 whole entry): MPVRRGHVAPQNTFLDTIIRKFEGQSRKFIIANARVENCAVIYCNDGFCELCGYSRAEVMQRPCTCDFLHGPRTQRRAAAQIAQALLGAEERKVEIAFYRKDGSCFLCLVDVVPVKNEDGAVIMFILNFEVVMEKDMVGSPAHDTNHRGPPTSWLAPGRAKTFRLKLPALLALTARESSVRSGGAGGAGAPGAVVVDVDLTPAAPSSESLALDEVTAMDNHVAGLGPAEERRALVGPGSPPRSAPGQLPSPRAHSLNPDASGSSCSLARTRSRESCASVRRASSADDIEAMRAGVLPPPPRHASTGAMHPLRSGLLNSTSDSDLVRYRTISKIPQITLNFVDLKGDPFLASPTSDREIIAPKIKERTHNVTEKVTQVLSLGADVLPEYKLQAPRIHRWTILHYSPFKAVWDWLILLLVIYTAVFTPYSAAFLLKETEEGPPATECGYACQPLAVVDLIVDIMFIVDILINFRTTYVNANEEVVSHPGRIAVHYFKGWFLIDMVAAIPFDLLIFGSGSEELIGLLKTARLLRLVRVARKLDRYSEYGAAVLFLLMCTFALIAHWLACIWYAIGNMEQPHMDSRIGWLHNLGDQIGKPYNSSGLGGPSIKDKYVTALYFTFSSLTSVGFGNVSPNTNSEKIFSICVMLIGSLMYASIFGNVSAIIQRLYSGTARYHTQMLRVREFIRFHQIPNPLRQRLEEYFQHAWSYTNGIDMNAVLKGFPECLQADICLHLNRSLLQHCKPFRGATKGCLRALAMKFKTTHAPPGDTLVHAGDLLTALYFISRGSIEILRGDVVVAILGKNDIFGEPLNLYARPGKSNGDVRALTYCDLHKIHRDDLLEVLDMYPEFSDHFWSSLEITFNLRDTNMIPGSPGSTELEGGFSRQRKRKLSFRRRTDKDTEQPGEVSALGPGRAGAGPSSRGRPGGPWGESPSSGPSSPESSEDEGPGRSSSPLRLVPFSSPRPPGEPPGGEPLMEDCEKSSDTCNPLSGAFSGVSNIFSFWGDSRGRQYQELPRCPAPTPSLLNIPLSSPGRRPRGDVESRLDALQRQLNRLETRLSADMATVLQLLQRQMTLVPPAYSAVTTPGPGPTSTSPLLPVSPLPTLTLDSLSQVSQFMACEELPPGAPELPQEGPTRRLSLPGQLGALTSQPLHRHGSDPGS

[28] = system: Mycobacterium tuberculosis; experiment: Antimycobacterial activity against Mycobacterium tuberculosis Erdman assessed as bacterial growth inhibition; type: functional
[29] = system: Mycobacterium tuberculosis; experiment: In vivo antimycobacterial activity against Mycobacterium tuberculosis Erdman infected mouse acute tuberculosis infection model assessed as reduction lung bacterial loads by measuring CFU at 10 to 100 mg/kg for 3 weeks at 5 days/week; type: functional, organism-based; conditions: dose 10-100 mg/kg, DDE = dose-dependent effect
[30] = system: Mycobacterium tuberculosis; experiment: In vivo antimycobacterial activity against Mycobacterium tuberculosis Erdman infected mouse chronic tuberculosis infection model assessed as reduction log10 CFU at 10 to 100 mg/kg for 4 weeks at 5 days/week administered after 31 days post infection relative to control; type: functional; conditions: dose 10-100 mg/kg

Row | Compound | MIC50 [1] [µg/mL] | MIC90 [1] [µg/mL] | MIC [3] [µg/mL] | CC50 [4] [µg/mL] | Vd [5] [L/kg] | half-life [6] [h] | Cmax [7] [ng/mL] | half-life [11] [h] | half-life [12] [h] | half-life [13] [h] | MIC [14] [µg/mL] | also measured
1 | CO[C@H]1/C=C/O[C@@]2(C)Oc3c(C)c(O)c4c(O)c(c(/C=N/N5CCN(C)CC5)c(O)c4c3C2=O)NC(=O)/C(C)=C\C=C\[C@H](C)[C@H](O)[C@@H](C)[C@@H](O)[C@@H](C)[C@H](OC(C)=O)[C@@H]1C [RIFAMPIN] | 0.035 (≈ 0.0425 µM) | 0.064 (≈ 0.0778 µM) |  |  |  |  |  |  |  |  |  | Activity [2]: Active
2 | NNC(=O)c1ccncc1 [ISONIAZID] | 0.024 (≈ 0.175 µM) | 0.034 (≈ 0.248 µM) |  |  |  |  |  |  |  |  |  | 
3 | C[C@]1(CN2Cc3nc(-c4ccc(F)cc4F)sc3C2)Cn2cc([N+](=O)[O-])nc2O1 |  |  | < 0.013 | > 32 | 2.66 | 3.08 | 182 |  |  |  |  | AUClast ([8]; mouse): 1789 ng·h/mL; F ([9]; mouse, po, 5 mg/kg): 9.6%
4 | C[C@]1(CN2Cc3nc(-c4ncc(F)cc4F)sc3C2)Cn2cc([N+](=O)[O-])nc2O1 |  |  | 0.06 (≈ 0.143 µM) | > 32 | 1.57 | 1.4 | 1010 |  |  |  |  | clearance [10]: 13.8 mL/min/kg; AUC(0-t) ([8]; CD-1, mouse): 4990 ng·h/mL; bioavailability ([9]; CD-1, mouse): 57.9%
5 | C[C@]1(CN2CCc3nc(-c4ccc(F)cc4)sc3CC2)Cn2cc([N+](=O)[O-])nc2O1 |  |  | 0.03 (≈ 0.0699 µM) | > 32 |  |  |  | 0.25 | 0.133 | 0.117 | > 8 | 
6 | C[C@]1(COc2ccc(N3CCC(Oc4ccc(OC(F)(F)F)cc4)CC3)cc2)Cn2cc([N+](=O)[O-])nc2O1 | 0.002 (≈ 0.00374 µM) | 0.004 (≈ 0.00748 µM) | 0.006 (≈ 0.0112 µM) | > 32 |  |  |  | 1.4 | > 2.42 | > 2.42 | 0.61 (≈ 1.14 µM) | Papp A→B [15]: 0.09 ×10⁻⁶ cm/s; fraction unbound [16]: 0.005; fraction unbound [17]: 0.004; fraction unbound [18]: 0.005; fraction unbound [19]: 0.005; IC50 [20]: > 100 µM; IC50 [21]: > 100 µM; IC50 [22]: > 100 µM; IC50 [23]: > 100 µM; IC50 [24]: > 100 µM; IC50 [25]: > 100 µM; IC50 [26]: > 100 µM; IC50 [27]: > 30 µM; MIC [28]: 0.015 µg/mL (≈ 0.0281 µM); Activity [29]: Dde; Activity [30]: 1 log10CFU
